Earlier results in patent publication US20080287669A1, “METHODS AND COMPOSITIONS FOR IDENTIFYING COMPOUNDS USEFUL IN NUCLEIC ACID PURIFICATION” (priority 2007, published 2008).
Where a name gives a salt, the structure may show the parent alone. Read-outs that look alike come from different tables or passages of the source.

Conditions: for Dielectric Constant: Table 4, exemplary solvents
[1] = Table 1, soluble organic solvents
[2] = Table 3, miscible organic solvents
[3] = Table 2, very soluble organic solvents

| Structure (SMILES) | Dielectric Constant (DC) [1] | Dielectric Constant (DC) [2] | further results |
| --- | --- | --- | --- |
| Cc1ccc(C)c(O)c1 [2,5-xylenol] | 5.36 | – | – |
| CCCC(C)O (stereo not shown) [2-pentanol] | – | – | Dielectric Constant (DC) [3]: 13.71 |
| Brc1cccc2ccccc12 [1-bromonaphthalene] | 4.77 | – | – |
| Cc1ccccn1 [2-picoline] | – | – | Dielectric Constant (DC) [3]: 10.18 |
| CC(=O)O [acetic acid] | – | 6.2 | – |
| CCOCCOC(C)=O [ethylene glycol ethylether acetate] | – | – | Dielectric Constant (DC) [3]: 7.57 |
| CC(O)CCO (stereo not shown) [1,3-butanediol] | – | 28.8 | – |
| O=Cc1ccco1 [furfural] | 42.1 | – | – |
| CC(=O)OC(C)=O [acetic anhydride] | – | – | Dielectric Constant (DC) [3]: 22.45 |
| CN(C)C [trimethylamine] | – | – | Dielectric Constant (DC) [3]: 2.44 |
| O=C(O)C(Cl)(Cl)Cl [trichloroacetic acid] | – | – | Dielectric Constant (DC): 4.6 |
| CCCCCC(C)=O [methyl pentyl ketone] | – | – | Dielectric Constant (DC) [3]: 11.95 |
| COC(C)=O [methylacetate] | – | – | Dielectric Constant (DC) [3]: 7.07 |
| CC1CCCO1 (stereo not shown) [2-methyl-tetrahydrofuran] | 6.97 | – | – |
| OCc1ccccc1 [benzyl alcohol] | 11.92 | – | – |
| CC(=O)C=C(C)C [mesityl oxide] | 15.6 | – | – |
| CC(C)O [2-propanol] | – | 20.18 | – |
| Cc1ccnc(C)c1 [2,4-lutidine] | – | – | Dielectric Constant (DC) [3]: 9.6 |
| CCOP(=O)(OCC)OCC [triethyl phosphate] | 13.2 | – | – |
| CC=O [acetaldehyde] | – | 21 | – |
| OCCCO [1,3-propanediol] | – | 35.1 | – |
| CCOCCOCCOCC [diethylene glycol diethyl ether] | – | – | Dielectric Constant (DC) [3]: 5.7 |
| CCN [ethylamine] | – | 8.7 | – |
| Cc1cccnc1 [3-picoline] | – | 11.1 | – |
| NC=O [formamide] | – | – | Dielectric Constant (DC): 111 |
| C1CCOC1 [tetrahydrofuran] | – | 7.52 | Dielectric Constant: 7.52 |

| Structure (SMILES) | Dielectric Constant (DC) [1] | Dielectric Constant (DC) [2] | further results |
| --- | --- | --- | --- |
| O=C1CCCCC1 [cyclohexanone] | 16.1 | – | – |
| CCCC(=O)O [butanoic acid] | – | 2.98 | – |
| CN1CCCC1=O [N-methyl-2-pyrrolidone] | – | – | Dielectric Constant (DC) [3]: 32.2 |
| S=C=S [carbon disulfide] | 2.63 | – | – |
| CC1COC(=O)O1 (stereo not shown) [propylene carbonate] | – | – | Dielectric Constant (DC) [3]: 66.14 |
| OCCCCCO [1,5-pentanediol] | 26.2 | – | – |
| COCCOC(C)=O [ethylene glycol monomethylether acetate] | – | – | Dielectric Constant (DC) [3]: 8.25 |
| FC(F)Cl [chlorodifluoromethane] | – | – | Dielectric Constant (DC) [3]: 6.11 |
| Cc1ccncc1 [4-picoline] | – | 12.2 | – |
| CCC(=O)CC [diethylketone] | – | – | Dielectric Constant (DC) [3]: 17 |
| Cc1cccc(C)n1 [2,6-lutidine] | – | 7.33 | – |
| FC(F)(Cl)Cl [dichlorodifluoromethane] | 3.5 | – | – |
| Cc1cc(C)cc(O)c1 [3,5-xylenol] | 9.06 | – | – |
| O=S1(=O)CCCC1 [sulfolane] | – | 43.26 | Dielectric Constant: 43.26 |
| C=CCO [allyl alcohol] | – | 19.7 | – |
| CC(N)=O [acetamide] | – | – | Dielectric Constant (DC) [3]: 67.6 |
| CC(O)CO (stereo not shown) [1,2-propanediol] | – | 27.5 | – |
| NC1CCCCC1 [cyclohexylamine] | 4.55 | – | – |
| OCCCCC(O)CO (stereo not shown) [1,2,6-hexanetriol] | – | – | Dielectric Constant (DC) [3]: 31.5 |
| C[N+](=O)[O-] [nitromethane] | 37.27 | – | – |
| CCCC=O [butanal] | 13.45 | – | – |
| CCOC=O [ethyl formate] | 8.57 | – | – |
| CCOC(=O)CC(C)=O [ethylacetoacetate] | – | – | Dielectric Constant (DC) [3]: 14 |
| Cc1ccccc1O [o-cresol] | 6.76 | – | – |
| OCc1ccco1 [furfuryl alcohol] | – | 16.85 | – |

Continued, in another order:

| Dielectric Constant (DC) [1] | Dielectric Constant (DC) [2] | Structure (SMILES) | further results |
| --- | --- | --- | --- |
| – | 9.3 | CCCCOCCO [ethyleneglycol monobutyl ether] | – |
| – | 3.44 | CCC(=O)O [propanoic acid] | – |
| 2.77 | – | CCCCNCCCC [dibutylamine] | – |
| – | 8.3 | C1CCNC1 [pyrrolidine] | – |
| 6.08 | – | CCOC(C)=O [ethyl acetate] | – |
| 3.07 | – | CCCNCCC [dipropylamine] | – |
| 2.66 | – | CCCCC(=O)O [pentanoic acid] | – |
| – | 7.42 | C1COCCN1 [morpholine] | – |
| – | 12.62 | NCCNCCN [diethylenetriamine] | – |
| 6.18 | – | COC [dimethylether] | – |
| – | 31.94 | NCCO [ethanolamine] | – |
| – | 18.2 | CC(=O)CC(C)(C)O [diacetone alcohol] | – |
| – | 4.71 | CCCCN [butylamine] | – |
| – | 47.24 | C[S+](C)[O-] [dimethylsulfoxide] | Dielectric Constant (DC): 38; Dielectric Constant: 47.2 |
| – | 23.69 | OCCOCCOCCO [triethyleneglycol] | – |
| – | 25.3 | CCO [ethanol, reference compound] | Dielectric Constant: 25.3 |
| – | 4.27 | CCCCCN [pentylamine] | – |
| 18.5 | – | CCC=O [propanal] | – |
| – | 46.53 | OCC(O)CO [glycerol] | – |
| – | 4.43 | CC(C)CN [isobutylamine] | – |
